Results as given in US20250230138A1, “COMPOUNDS HAVING A T-STRUCTURE FORMED BY AT LEAST FOUR CYCLES FOR USE IN THE TREATMENT OF CANCER AND OTHER INDICATIONS” (TheRas, Inc., priority 2022, published 2025).
pIC50: −log10 of the molar value. Like-named read-outs stand apart in the source and are kept apart here.

Assays:
pAKT in BT474 cells = test: Cell-based pAKT HTRF assay in BT474 cells; conditions: BT474 cells, 4 hr incubation, read-out: pAKT inhibition IC50 in BT474 cells
In short: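 Compound titration: 3 μM downward in 3-fold steps, nine points, 4 hr on cells. Detection: lysis, then d2 plus Eu Cryptate antibody mix, room-temperature incubation of 4–24 h, and time-resolved fluorescence read at 615 nm.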

[1] = biological target: Cys242 in human PIK3CA (157-299) (Homo sapiens (Human), UniProt P42336); test: Covalent modification assay using MALDI-TOF MS; type: biochemical; conditions: 4 h reaction time point
Chain of Cys242 in human PIK3CA (157-299) (P42336 157-299): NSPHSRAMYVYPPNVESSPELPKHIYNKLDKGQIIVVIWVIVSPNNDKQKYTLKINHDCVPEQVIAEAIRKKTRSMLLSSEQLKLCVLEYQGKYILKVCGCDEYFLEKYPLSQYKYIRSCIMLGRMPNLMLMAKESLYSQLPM
In short: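 PIK3CA (157-299), 3.33 or 1 μM in 20 mM HEPES, 150 mM NaCl, 2 mM MgCl2, pH 7.3, was incubated with compound at room temperature in the dark for 15 min, 30 min, 2 h or 4 h. Linear MALDI-TOF read-out; % modification = adduct peak height over summed heights of all protein species.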

[2] = 3.33 μM protein target, 1:7.5 protein to compound ratio (compounds 1-852)
[3] = 1 μM protein target, 1:5 protein to compound ratio (compounds 853-1279)

SMILES | pIC50 (pAKT in BT474 cells; Compounds 10-999) | % of modification [1, 2] | pIC50 (pAKT in BT474 cells; Compounds 1000-1279) | % of modification [1, 3] | pIC50 (pAKT in BT474 cells; Homo sapiens, BT-474, Compounds 10-999)
C=CC(=O)N1CCn2nc(-c3nc(-c4ccc5ncn(C)c5c4)c4ccsc4c3-c3c(F)cc(F)cc3OCCOC)cc2[C@@H]1C [Compound 702] | > 7.00 | A (percent of modification of PIK3CA protein ≥75%) |  |  | 
C=CC(=O)N1CCc2nc(-c3nc(-c4ccc5c(c4)CNC5=O)c4ccsc4c3-c3c(F)cc(F)cc3OCCO)sc2C1 (single isomer, unassigned) [Compound 1033] |  |  | < 6.00 | D (percent of modification <25%) | 
C=CC(=O)N1CCc2nc(-c3nc(-c4ccc5c(c4)CCN(C)C5)c4ccsc4c3-c3c(F)cc(F)cc3OCCOC)sc2C1 (single isomer, unassigned) [Compound 450] | > 7.00 | A (percent of modification of PIK3CA protein ≥75%) |  |  | 
C=CC(=O)N1Cc2cc(-c3nc(-c4ccc5c(c4)CCN(C)C5)c4ccsc4c3-c3c(F)cc(F)cc3OCC)nn2C(C)C1 (stereo not drawn) [Compound 485] | > 7.00 | A (percent of modification of PIK3CA protein ≥75%) |  |  | 
C=CC(=O)N1CCc2nc(-c3nc(-c4ccc5nn(C)cc5c4)c4ccsc4c3-c3c(F)cc(F)cc3OCCOC)sc2C1 [Compound 947] | > 7.00 |  |  | A (percent of modification of PIK3CA protein ≥75%) | 
C=CC(=O)N1Cc2cc(-c3nc(-c4ccc5c(cnn5C)c4)c4ccsc4c3-c3c(F)cc(F)cc3OCC(C)(C)O)nn2[C@@H](C)C1 [Compound 848] | > 7.00 | A (percent of modification of PIK3CA protein ≥75%) |  |  | 
C=CC(=O)N1CCn2nc(-c3nc(-c4cnc(OCCN(C)C)nc4)c4ccsc4c3-c3c(F)cc(F)cc3OCCOC)cc2C1C (stereo not drawn) [Compound 1056] |  |  | > 7.00 | A (percent of modification of PIK3CA protein ≥75%) | 
C=CC(=O)N1CCc2nc(-c3nc(-c4ccc5c(c4)CNC5=O)c4ccsc4c3-c3c(F)cc(F)cc3OCCO)sc2C1 [Compound 1052] |  |  | > 7.00 | A (percent of modification of PIK3CA protein ≥75%) | 
C=CC(=O)N1C[C@H](C)n2nc(-c3nc(-c4ccc5ncn(C)c5c4)c4ccsc4c3-c3c(F)cc(F)cc3OCCOC)cc2[C@H]1C [Compound 604] | > 7.00 | A (percent of modification of PIK3CA protein ≥75%) |  |  | 
C=CC(=O)N1CCc2nc(-c3nc(-c4cnc(N)nc4)c4ccsc4c3-c3ccc(F)cc3OCCOC)sc2C1 [Compound 133] | > 7.00 | A (percent of modification of PIK3CA protein ≥75%) |  |  | 
C=CC(=O)N1CCc2ccc(-c3nc(-c4cn(C)cn4)c4ccsc4c3-c3c(F)cc(F)cc3OCCO)cc2C1 (single isomer, unassigned) [Compound 1000] |  |  | > 7.00 | A (percent of modification of PIK3CA protein ≥75%) | 
C=CC(=O)N1Cc2cc(-c3nc(-c4cnc5c(c4)CN(C)C5=O)c4ccsc4c3-c3c(F)cc(F)cc3OC(C)C)nn2C[C@H]1C [Compound 513] | > 7.00 | A (percent of modification of PIK3CA protein ≥75%) |  |  | 
C=CC(=O)N1CCn2nc(-c3nc(-c4cnn(C)c4)c4ccsc4c3-c3ccc(F)cc3OC(C)C)c(OC)c2C1 [Compound 313] | > 7.00 | A (percent of modification of PIK3CA protein ≥75%) |  |  | 
C=CC(=O)N1Cc2cc(-c3nc(-c4cnn(CC(F)F)c4)c4ccsc4c3-c3c(F)cc(F)cc3OCCOC)nn2C[C@H]1C [Compound 727] | > 7.00 | A (percent of modification of PIK3CA protein ≥75%) |  |  | 
C=CC(=O)N1CCc2nc(-c3nc(-c4ncn(C)n4)c4ccsc4c3-c3c(F)cc(F)cc3OC(C)C)sc2C1 [Compound 390] | > 7.00 | A (percent of modification of PIK3CA protein ≥75%) |  |  | 
C=CC(=O)N1CCn2nc(-c3nc(-c4ccc5c(c4)CCN(CC(F)F)CC5)c4ccsc4c3-c3c(F)cc(F)cc3OCCOC)cc2C1C (stereo not drawn) [Compound 1122] |  |  | > 7.00 | A (percent of modification of PIK3CA protein ≥75%) | 
C=C(F)C(=O)N1CCn2nc(-c3nc(-c4ccc5c(c4)CCN(C(C)C)C5)c4ccsc4c3-c3ccc(F)cc3OC(C)C)cc2C1 [Compound 294] | > 7.00 | A (percent of modification of PIK3CA protein ≥75%) |  |  | 

SMILES | pIC50 (pAKT in BT474 cells; Compounds 10-999) | % of modification [1, 2] | pIC50 (pAKT in BT474 cells; Compounds 1000-1279) | % of modification [1, 3] | pIC50 (pAKT in BT474 cells; Homo sapiens, BT-474, Compounds 10-999)
C=CC(=O)N1CCc2cc(-c3nc(-c4cnc5c(cnn5C)c4)c4ccsc4c3-c3c(F)cc(F)cc3OCCOC)nn2CC1 [Compound 1023] |  |  | > 7.00 | A (percent of modification of PIK3CA protein ≥75%) | 
C=CC(=O)N1Cc2cc(-c3nc(-c4cnc5c(c4)CNC(=O)C5)c4ccsc4c3-c3c(F)cc(F)cc3OCCOC)nn2[C@@H](C)C1 [Compound 515] | > 7.00 | A (percent of modification of PIK3CA protein ≥75%) |  |  | 
C=CC(=O)N1CCc2ncc(-c3nc(-c4ccc5c(c4)CNC5=O)c4ccsc4c3-c3ccc(F)cc3OC(C)C)cc2C1 [Compound 316] | > 7.00 | A (percent of modification of PIK3CA protein ≥75%) |  |  | 
C=CC(=O)N1CCn2nc(-c3nc(-c4cnn(C)c4)c4ccsc4c3-c3ccc(Cl)cc3F)cc2C1 [Compound 284] | 6.00 to 7.00 | A (percent of modification of PIK3CA protein ≥75%) |  |  | 
C=CC(=O)N1CCn2nc(-c3nc(-c4ccc5c(cnn5C)c4)c4ccsc4c3-c3c(F)cc(F)cc3OCCO)cc2[C@H]1C [Compound 652] | > 7.00 | C (25%≤percent of modification <50%) |  |  | 
C=CC(=O)N1Cc2cc(-c3nc(-c4ccn(C)n4)c4ccsc4c3-c3c(F)cc(F)cc3OCCOC)nn2C[C@H]1C [Compound 722] | > 7.00 | A (percent of modification of PIK3CA protein ≥75%) |  |  | 
C=CC(=O)N1CC(n2cc(-c3nc(-c4ccc5c(c4)CCNC5)c4c(c3-c3ccc(F)cc3OCCOC)CCC4)cn2)C1 [Compound 109] | 6.00 to 7.00 | A (percent of modification of PIK3CA protein ≥75%) |  |  | 
C=CC(=O)N1CCn2nc(-c3nc(-c4ccc(=O)n(C)c4)c4ccsc4c3-c3ccc(F)cc3OCCOC)cc2C1 [Compound 195, 5-[7-[4-fluoro-2-(2-methoxyethoxy)phenyl]-6-(5-prop-2-enoyl-6,7-dihydro-4H-pyrazolo[1,5-a]pyrazin-2-yl)thieno[3,2-c]pyridin-4-yl]-1-methyl-pyridin-2-one] |  | A (percent of modification of PIK3CA protein ≥75%) |  |  | > 7.00
C=CC(=O)N1CCn2nc(-c3nc(-c4cnn(C)c4)c4ccsc4c3-c3c(F)cc(F)cc3F)cc2C1 [Compound 292] | 6.00 to 7.00 | A (percent of modification of PIK3CA protein ≥75%) |  |  | 
C=CC(=O)N1CCn2nc(-c3nc(-c4ccc5oc(C)nc5c4)c4ccsc4c3-c3c(F)cc(F)cc3OC[C@@H](C)O)cc2[C@@H]1C [Compound 655] | > 7.00 | A (percent of modification of PIK3CA protein ≥75%) |  |  | 
C=CC(=O)N1CCc2ccc(-c3nc(-c4ccc5c(c4)CNC5=O)c4ccsc4c3-c3c(F)cc(F)cc3OCCO)cc2C1 (single isomer, unassigned) [Compound 962] | > 7.00 |  |  | A (percent of modification of PIK3CA protein ≥75%) | 
C=CC(=O)N1CCn2nc(-c3nc(-c4ccc5nncn5c4)c4ccsc4c3-c3c(F)cc(F)cc3OC[C@@H](C)O)cc2[C@H]1C [Compound 897] | > 7.00 |  |  | A (percent of modification of PIK3CA protein ≥75%) | 
C=CC(=O)N1CCn2nc(-c3nc(-c4cccc(=O)n4C)c4ccsc4c3-c3c(F)cc(F)cc3OCCOC)cc2C1C (stereo not drawn) [Compound 1020] |  |  | > 7.00 | A (percent of modification of PIK3CA protein ≥75%) | 
C=CC(=O)N1CCc2ncc(-c3nc(-c4ccc5c(c4)CCN(C)CC5)c4ccsc4c3-c3c(F)cc(F)cc3OCCOC)cc2C1 [Compound 1085] |  |  | > 7.00 | A (percent of modification of PIK3CA protein ≥75%) | 
C=CC(=O)N1CCn2nc(-c3nc(-c4ccc(OC5CN(C)C5)cc4)c4ccsc4c3-c3c(F)cc(F)cc3OCCOC)cc2C1C (stereo not drawn) [Compound 1094] |  |  | > 7.00 | A (percent of modification of PIK3CA protein ≥75%) | 
C=CC(=O)N1CCn2nc(-c3nc(-c4cncc(OC5CN(C)C5)c4)c4ccsc4c3-c3c(F)cc(F)cc3OCCOC)cc2C1C (stereo not drawn) [Compound 1203] |  |  | > 7.00 | A (percent of modification of PIK3CA protein ≥75%) | 
